Tests used:
FKBP12 = FKBP12 (Homo sapiens, UniProt P62942); experiment: Ki test procedure: inhibition of peptidyl-prolyl isomerase (rotamase) activity, chymotrypsin-coupled assay; type: biochemical; conditions: FKBP, substrate N-succinyl-Ala-Ala-Pro-Phe-p-nitroanilide; read-out: Ki (apparent Ki, rotamase inhibition)
Excerpt: As discussed above, the compounds of the present invention have an affinity for the FK506 binding protein, particularly FKBP12. The inhibition of the prolyl peptidyl cis-trans isomerase activity of FKBP may be measured as an indicator of this affinity.
Inhibition of the peptidyl-prolyl isomerase (rotamase) activity of the inventive compounds can be evaluated by known methods described in the literature (Harding, et al., Nature, 1989, 341 :758-760; Holt et al. J. Am. Chem. Soc., 115:9923-91938). The cis-trans isomerization of an alanine-proline bond in a model substrate, N-succinyl-Ala-Ala-Pro-Phe-p-nitroanilide, is monitored spectrophotometrically in a chymotrypsin-coupled assay, which releases para-nitroanilide from the trans form of the substrate. The inhibition of this reaction caused by the addition of different concentrations of inhibitor is determined, and the data is analyzed as a change in first-order rate constant as a function of inhibitor concentration to yield the apparent Ki values. […]
The absorbance at 390 nm versus time is monitored for 90 seconds using a spectrophotometer and the rate constants are determined from the absorbance versus time data files. […]

[1] = tested on: MPTP lesioning of dopaminergic neurons in mice; experiment: MPTP model of Parkinson's Disease: striatal TH innervation density; type: in vivo; conditions: MPTP 30 mg/kg i.p. 5 days, test compound 4 mg/kg s.c., FIG. 1
Method: FIG. 1 is a bar graph showing Protection of Striatal TH Innervation Density from MPTP-toxicity by Concurrent Drug Dosing.
MPTP lesioning of dopaminergic neurons in mice is used as an animal model of Parkinson's Disease. Four week old male CD1 white mice are dosed i.p. with 30 mg/kg of MPTP for 5 days. Test compounds (4 mg/kg), or vehicle, are administered s.c. along with the MPTP for 5 days, as well as for an additional five days following cessation of MPTP treatment. At 18 days following MPTP treatment, the animals are sacrificed and the striata dissected and perfusion-fixed. Immunostaining is performed on sagittal and coronal brain sections using anti-tyrosine hydroxylase […] to quantitative survival and recovery of dopaminergic neurons. In animals treated MPTP and vehicle, a substantial loss of functional dopaminergic terminals is observed as compared to non-lesioned animals. Lesioned animals receiving test compounds show a significant recovery of TH-stained dopaminergic neurons. This model presents quantitation for the recovery of TH-positive dopaminergic neurons in the striatum of animals receiving of animals receiving the compounds of the present invention. Data for representative control and lesioned animals not receiving the test drugs is also presented against the data from the animals receiving the compounds of the present invention. […]

[2] = Liver microsomal assay (model of first pass metabolism); type: in vitro ADME, mouse
Method: (§1) In studies to directly asses the rate of metabolism of N-oxides, a mouse liver microsomal assay was used as described below to model first pass metabolism.
Liver microsomes from various species were purchased from a commercial supplier. The microsomes are characterized prior to shipment. The reaction mixture contained microsomes, 5 μM MgCl2, 1 mM NADP, 4 mM glucose-6-phosphate (G-6-P), and 1 unit/4 mL glucose-6-phosphate dehydrogenase (G-6-P DH). The final microsomal protein concentration for all studies was 0.2 mg/mL. Incubations were carried out for 1 hour in a shaking water bath (37° C.). The reaction was terminated by removing an aliquot from the reaction mixture and placing it in a tube with an equal volume of acetonitrile and the bioanalytical internal standard. The results of these experiments are presented as compound half-lives (t1/2) in Table II.

rabbit liver esterase = experiment: Esterase activity: degradation by purified rabbit liver esterase; type: in vitro ADME; conditions: for de-esterification by purified esterase (in words): purified esterification enzyme in vitro; for esterase degradation (rate of enzymatic degradation): purified rabbit liver esterase, 0.05 M Tris buffer pH 7.5, 2 hours
Method: as §1
Purified rabbit liver esterase was purchased from Sigma. Five (5) units of enzyme were placed in 2 mL of 0.05 M Tris buffer (pH 7.5). Incubations were performed for 2 hours. The reaction was terminated by removing an aliquot from the reaction mixture and placing it in a tube with an equal volume of acetonitrile and the bioanalytical internal standard. The results of these experiments are presented in Table II as rates of enzymatic degradation of the compounds.

[3] = tested on: chick dorsal root ganglia; experiment: Chick dorsal root ganglion cultures and neurite growth; type: cell-based; conditions: Gallus gallus; chick embryo DRG explants, 48 hours after drug treatment; read-out: ED50 (neurite outgrowth)
Method: Dorsal root ganglia were dissected from chick embryos of ten day gestation. Whole ganglion explants were cultured on thin layer Matrigel-coated 12 well plates with Liebovitz L15 plus high glucose media supplemented with 2 mM glutamine and 10% fetal calf serum, and also containing 10 μM cytosine β-D arabinofuranoside (Ara C) at 37° C. in an environment containing 5% CO2. Twenty-four hours later, […] Forty-eight hours after drug treatment, the ganglia were visualized under phase contrast or Hoffman Modulation contrast with a Zeiss Axiovert inverted microscope. Photomicrographs of the explants were made, and neurite outgrowth was quantified. Neurites longer than the DRG diameter were counted as positive, with total number of neurites quantitated per each experimental condition. Three to four DRGs are cultured per well, and each treatment was performed in duplicate.

Sequence of FKBP12 (P62942 whole entry): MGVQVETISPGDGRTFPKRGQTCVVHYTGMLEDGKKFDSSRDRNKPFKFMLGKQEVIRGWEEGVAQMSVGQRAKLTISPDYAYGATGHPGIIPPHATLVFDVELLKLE

CCC(C)(C)C(=O)C(=O)N1CCC[C@H]1C(=O)OCCCc1ccc[n+]([O-])c1 [Example 1, 3-(3-Pyridyl)-1-propyl (2S)-1-(3,3-Dimethyl-1,2-dioxopentyl) -2-pyrrolidinecarboxylate, N-oxide]
Ki (FKBP12): 225 nM | protection / recovery of striatal TH-positive dopaminergic innervation (in words) [1]: more potent in this in vivo model of neurodegeneration | half-life compared with parent compound (in words) ([2]; mouse liver microsomal assay): significantly longer half-life than the parent compound | t1/2 (compound half-life in microsomal assay) ([2]; mouse liver microsomes, 0.2 mg/mL protein, 37° C., 1 hour incubation): 42.8 min | de-esterification by purified esterase (in words) (rabbit liver esterase): limited de-esterification | esterase degradation (rate of enzymatic degradation) (rabbit liver esterase): 367 pmol/min/mg protein

CCC(C)(C)C(=O)C(=O)N1CCC[C@H]1C(=O)OCCCc1cccnc1 [Parent, 3-(3-Pyridyl)-1-propyl (2S)-1-(3,3-Dimethyl-1,2-dioxopentyl)-2-pyrrolidinecarboxylate, reference compound]
half-life ([2]; mouse liver microsomes, 0.2 mg/mL protein, 37° C., 1 hour incubation, read-out: t1/2 (compound half-life in microsomal assay)): 8.1 min | EC50 [3]: 0.05 nM | de-esterification by purified esterase (in words) (rabbit liver esterase): significant degradation | esterase degradation (rate of enzymatic degradation) (rabbit liver esterase): 7521 pmol/min/mg protein
